{"source": "the CATMoS acute toxicity set (Mansouri et al. 2021)", "origin": "cited, not measured here", "assay": "rat acute oral toxicity", "conditions": "in vivo", "source_text": "[…]The data set underlying the modeling effort for this project was initially compiled by NICEATM and U.S. EPA’s CCTE. Briefly, LD50 data were collected from rat acute oral systemic toxicity tests, including limit tests, ranges/confidence intervals, and discrete LD50 values. The full data set included 21,200 LD50 entries for 15,688 substances. […] Data were reviewed to ensure that LD50 values with obvious errors in the extracted data such as unit conversion errors (e.g., comma and decimal separator misplacements) were either fixed or removed. After this review, 16,209 LD50 values remained. Many of the chemicals represented had multiple LD50 entries, requiring that a single representative value per Chemical Abstracts Service Registry Number (CASRN) identifier be defined to facilitate modeling efforts. Based on ATWG feedback and to define the representative LD50 as a protective value while accounting for the distribution across multiple LD50s, the median of the lowest quartile was computed using only discrete LD50 values (omitting limit test data and range and confidence interval data). A detailed summary of the data compilation is available online on the NICEATM webpage dedicated to the collaborative modeling project (NTP 2020).\n[…][…] For categorical designations, limit test and range/confidence interval LD50 data were integrated wherever possible. As such, the number of chemicals with end point values/calls varies across the modeling end points (Table 3) based on whether chemicals had representative LD50 values and/or other data. If a chemical had both, the representative value was used to determine categorical calls rather than limit test data. Some data were useable only for certain end points and categories depending on the thresholds. For example, ranges that spanned multiple hazard categories were considered only for the binary (very toxic/nontoxic) end points and omitted from rendering a determination for hazard category assignment.\n[…]The final data set comprising 11,992 chemicals was split into training and evaluation sets […], respectively. This process was performed semirandomly by ordering chemicals based on the five end points (categorical and continuous LD50 values) and partitioning every fourth record into the evaluation set accordingly. This approach was taken to ensure an equivalent distribution of the LD50 values and the different hazard categories between the training and the evaluation sets without supervised sampling of the chemicals based on structures (Figure 1A). The sources of the chemical structures were also kept equivalent between the two sets, with chemical structures obtained from DSSTox, being the highest quality, representing over 75% of each set (Figure 1B).", "note": "Where “and” joins values, the source holds several entries; their conditions need not be identical. Identical values can stand only once."}
{"smiles": "C=CC(=O)OCCOCCOC(=O)C=C", "values": [{"measurement": "LD50", "result": 250, "unit": "mg/kg"}]}
{"smiles": "CCCSc1nc(Cl)c([N+](=O)[O-])c(Cl)n1", "values": [{"measurement": "LD50", "result": 300, "unit": "mg/kg"}]}
{"smiles": "CNc1nc(NC(C)C)nc(OC)n1", "values": [{"measurement": "LD50", "result": 2400, "unit": "mg/kg"}]}
{"smiles": "CCCOP(=S)(OCCC)Oc1cnn(C)c(=O)c1OC", "values": [{"measurement": "LD50", "result": 26, "unit": "mg/kg"}]}
{"smiles": "CN(C)CCC=C1c2ccccc2CS(=O)c2sccc21", "note": "(stereo unspecified)", "values": [{"measurement": "LD50", "result": 319, "unit": "mg/kg"}]}
{"smiles": "Cc1cc(Cl)ccc1OC(C)C(=O)N(C)C", "note": "(stereo unspecified)", "values": [{"measurement": "LD50", "result": 800, "unit": "mg/kg"}]}
{"smiles": "CC(C)C(Br)C(=O)O", "note": "(stereo unspecified)", "values": [{"measurement": "LD50", "result": 769, "unit": "mg/kg"}]}
{"smiles": "O=C1CCCCCCCCCCCN1", "values": [{"measurement": "LD50", "result": 2330, "unit": "mg/kg"}]}
{"smiles": "CCCCC(=O)c1ccc(N)cc1", "values": [{"measurement": "LD50", "result": 84, "unit": "mg/kg"}]}
{"smiles": "CC(COCCN)COCCCN", "note": "(stereo unspecified)", "values": [{"measurement": "LD50", "result": 242, "unit": "mg/kg"}]}
{"smiles": "C=CCOc1ccccc1OC(=O)NC", "values": [{"measurement": "LD50", "result": 200, "unit": "mg/kg"}]}
{"smiles": "CNC(C)C#N", "note": "(stereo unspecified)", "values": [{"measurement": "LD50", "result": 48, "unit": "mg/kg"}]}
{"smiles": "COc1c(OP(=S)(OC)OC)cnn(C)c1=O", "values": [{"measurement": "LD50", "result": 2.5, "unit": "mg/kg"}]}
{"smiles": "O=[N+]([O-])c1ccc(O/N=C/c2cc(Br)c(O)c(Br)c2)c([N+](=O)[O-])c1", "values": [{"measurement": "LD50", "result": 1100, "unit": "mg/kg"}]}
{"smiles": "CC(C)C(CCN(C)C)(C(N)=O)c1cccc2ccccc12", "note": "(stereo unspecified)", "values": [{"measurement": "LD50", "result": 1030, "unit": "mg/kg"}]}
{"smiles": "O=S(=O)(O)c1ccc(N2CCC(c3ccc(Cl)cc3)=N2)cc1", "values": [{"measurement": "LD50", "result": 5530, "unit": "mg/kg"}]}
{"smiles": "COP(=O)(OC)OC(C)=CC(=O)Oc1ccc(C)cc1", "values": [{"measurement": "LD50", "result": 176, "unit": "mg/kg"}]}
{"smiles": "Cc1[nH]c(=O)n(C(C)C)c(=O)c1Br", "values": [{"measurement": "LD50", "result": 3400, "unit": "mg/kg"}]}
{"smiles": "CC(C)(C)OC(=O)CCl", "values": [{"measurement": "LD50", "result": 380, "unit": "mg/kg"}]}
{"smiles": "CCCCCCCCCCCCCCCCCC1=NCCN1", "values": [{"measurement": "LD50", "result": "3170 mg/kg and 4600 mg/kg and 1970 mg/kg"}]}
{"smiles": "Oc1ccc(-c2ccc(O)cc2)cc1", "values": [{"measurement": "LD50", "result": 4920, "unit": "mg/kg"}]}
{"smiles": "S=c1[nH]c2ccccc2[nH]1", "values": [{"measurement": "LD50", "result": 300, "unit": "mg/kg"}]}
{"smiles": "COc1cc(C(=O)Oc2c(CCC(C)=O)c(=O)n(-c3ccccc3)n2-c2ccccc2)cc(OC)c1OC", "values": [{"measurement": "LD50", "result": 3000, "unit": "mg/kg"}]}
{"smiles": "CCC(C)C(CN(C)C)c1cc(F)ccc1OC", "note": "(stereo unspecified)", "values": [{"measurement": "LD50", "result": 300, "unit": "mg/kg"}]}
{"smiles": "O=C1CN=C(c2ccccc2)c2cc([N+](=O)[O-])ccc2N1", "values": [{"measurement": "LD50", "result": 825, "unit": "mg/kg"}]}
{"smiles": "C=CN", "values": [{"measurement": "LD50", "result": 1850, "unit": "mg/kg"}]}
{"smiles": "CCOP(=S)(NC(C)CC)Oc1cc(C)ccc1[N+](=O)[O-]", "note": "(stereo unspecified)", "values": [{"measurement": "LD50", "result": 630, "unit": "mg/kg"}]}
{"smiles": "C=CC(=O)N1CN(C(=O)C=C)CN(C(=O)C=C)C1", "values": [{"measurement": "LD50", "result": 350, "unit": "mg/kg"}]}
{"smiles": "CCCCOC(=O)C(Cl)(Cl)Oc1ccccc1", "values": [{"measurement": "LD50", "result": 1500, "unit": "mg/kg"}]}
{"smiles": "Cc1ccc(N2C(=O)C=CC2=O)cc1N1C(=O)C=CC1=O", "values": [{"measurement": "LD50", "result": 2400, "unit": "mg/kg"}]}
{"smiles": "N#CC(O)c1cccc(Oc2ccccc2)c1", "note": "(stereo unspecified)", "values": [{"measurement": "LD50", "result": 800, "unit": "mg/kg"}]}
{"smiles": "C[n+]1cc2c3c(ccc2c2ccc4cc5c(cc4c21)OCO5)OCO3", "values": [{"measurement": "LD50", "result": 1660, "unit": "mg/kg"}]}
{"smiles": "C=CCOC(Cn1ccnc1)c1ccc(Cl)cc1Cl", "note": "(stereo unspecified)", "values": [{"measurement": "LD50", "result": 227, "unit": "mg/kg"}]}
{"smiles": "Cc1cc(C)cc(Cc2ccccc2)c1", "values": [{"measurement": "LD50", "result": 2330, "unit": "mg/kg"}]}
{"smiles": "CCCC(=O)c1ccc2c(c1)N(CCCN1CCN(C)CC1)c1ccccc1S2", "values": [{"measurement": "LD50", "result": 413, "unit": "mg/kg"}]}
{"smiles": "CC1CSC(c2ccccc2OC(=O)N(C)C)S1", "note": "(stereo unspecified)", "values": [{"measurement": "LD50", "result": 140, "unit": "mg/kg"}]}
{"smiles": "FC(F)(F)c1cccc(Nc2ccccc2-c2nn[nH]n2)c1", "values": [{"measurement": "LD50", "result": 455, "unit": "mg/kg"}]}
{"smiles": "CN1[C@@H]2CCC[C@H]1C[C@@H](NC(=O)c1nn(C)c3ccccc13)C2", "values": [{"measurement": "LD50", "result": 350, "unit": "mg/kg"}]}
{"smiles": "CN(C)CCC#N", "values": [{"measurement": "LD50", "result": 2600, "unit": "mg/kg"}]}
{"smiles": "Cc1c(Nc2ncnc3ccccc23)c(=O)n(C)n1-c1ccccc1", "values": [{"measurement": "LD50", "result": 369, "unit": "mg/kg"}]}
{"smiles": "N/C(=N\\c1c([N+](=O)[O-])cnc2ccccc12)N1CCOCC1", "values": [{"measurement": "LD50", "result": 4000, "unit": "mg/kg"}]}
{"smiles": "CN1[C@@H]2CC[C@H]1C[C@@H](OC(c1ccccc1)c1ccc(Cl)cc1)C2", "note": "(stereo partly specified)", "values": [{"measurement": "LD50", "result": 364, "unit": "mg/kg"}]}
{"smiles": "CC(C)Cc1ccc(C(C)C(=O)OCc2ccccn2)cc1", "note": "(stereo unspecified)", "values": [{"measurement": "LD50", "result": 1440, "unit": "mg/kg"}]}
{"smiles": "CC(C=O)CCC(C)(O)C=O", "note": "(stereo unspecified)", "values": [{"measurement": "LD50", "result": 5890, "unit": "mg/kg"}]}
{"smiles": "CCc1cc2c(cc1C=O)C(C)(C)CCC2(C)C", "values": [{"measurement": "LD50", "result": 3200, "unit": "mg/kg"}]}
{"smiles": "CCCN(CCC)S(=O)(=O)CCNC(=O)N(CCCl)N=O", "values": [{"measurement": "LD50", "result": 250, "unit": "mg/kg"}]}
{"smiles": "N[C@@H](CC(=O)O)C(=O)O", "values": [{"measurement": "LD50", "result": 7940, "unit": "mg/kg"}]}
{"smiles": "CN(N=O)c1ccccc1", "values": [{"measurement": "LD50", "result": 225, "unit": "mg/kg"}]}
{"smiles": "CO[Si](OC)(OC)c1ccccc1", "values": [{"measurement": "LD50", "result": 1050, "unit": "mg/kg"}]}
{"smiles": "C=C(C)C(=O)OCCN(CCOC(=O)C(=C)C)CCOC(=O)C(=C)C", "values": [{"measurement": "LD50", "result": 11200, "unit": "mg/kg"}]}
{"smiles": "O=C1CCC(=O)N1c1cc(Cl)cc(Cl)c1", "values": [{"measurement": "LD50", "result": 890, "unit": "mg/kg"}]}
{"smiles": "C=CCCC=O", "values": [{"measurement": "LD50", "result": 620, "unit": "mg/kg"}]}
{"smiles": "CCOC(=O)C1(c2ccccc2)CCN(CCOCc2ccccc2)CC1", "values": [{"measurement": "LD50", "result": 284, "unit": "mg/kg"}]}
{"smiles": "CCN(CC)CCNC(=O)c1ccc(NS(C)(=O)=O)cc1", "values": [{"measurement": "LD50", "result": 3200, "unit": "mg/kg"}]}
{"smiles": "O=Nc1ccc(N=O)cc1", "values": [{"measurement": "LD50", "result": 1020, "unit": "mg/kg"}]}
{"smiles": "CCCOc1c(Cl)c(Cl)c(Cl)c(Cl)c1Cl", "values": [{"measurement": "LD50", "result": 430, "unit": "mg/kg"}]}
{"smiles": "O=C(C=Cc1ccccn1)OCCN1CCN(c2ccc(Cl)cc2)CC1", "values": [{"measurement": "LD50", "result": 478, "unit": "mg/kg"}]}
{"smiles": "N#CCCOCCOCCO", "values": [{"measurement": "LD50", "result": 13400, "unit": "mg/kg"}]}
{"smiles": "O=C(Cl)C(Cl)Cl", "values": [{"measurement": "LD50", "result": 2460, "unit": "mg/kg"}]}
{"smiles": "CCOP(=S)(OCC)SCSC(=S)N(C)C", "values": [{"measurement": "LD50", "result": 150, "unit": "mg/kg"}]}
{"smiles": "CCCCOC(=O)COC(=O)c1ccccc1C(=O)OCCCC", "values": [{"measurement": "LD50", "result": 7000, "unit": "mg/kg"}]}
